# Read-outs that look alike come from different tables or passages of the source.
# Assays:
# [1] = molecular target: T1, SARS-CoV-2 nsp3-mac1 (Severe acute respiratory syndrome coronavirus 2, UniProt P0DTD1); assay: biochemical; format: biochemical; conditions: SARS-CoV-2 nsp3 macrodomain TR-FRET single point
# [2] = molecular target: T1, SARS-CoV-2 nsp3-mac1; assay: biochemical; design: SARS-CoV-2 nsp3 macrodomain TR-FRET single point, per cent inhibition, n=2
# [3] = read-out: perc_inhibition_mean, batch_name=ASAP-0000311-001
# [4] = read-out: perc_inhibition_mean, batch_name=ASAP-0000302-001
# [5] = read-out: perc_inhibition_mean, batch_name=ASAP-0000420-001
# [6] = read-out: perc_inhibition_mean, batch_name=ASAP-0000395-001
# [7] = read-out: perc_inhibition_mean, batch_name=ASAP-0000288-001
# [8] = read-out: perc_inhibition_mean, batch_name=ASAP-0000380-001
# [9] = read-out: perc_inhibition_mean, batch_name=ASAP-0000315-001
# [10] = read-out: perc_inhibition_mean, batch_name=ASAP-0000472-001
# [11] = read-out: perc_inhibition_mean, batch_name=ASAP-0000459-001
# [12] = read-out: perc_inhibition_mean, batch_name=ASAP-0000343-001
# [13] = read-out: perc_inhibition_mean, batch_name=ASAP-0000254-001
# [14] = read-out: perc_inhibition_mean, batch_name=ASAP-0000394-001
# [15] = read-out: perc_inhibition_mean, batch_name=ASAP-0000382-001
# [16] = read-out: perc_inhibition_mean, batch_name=ASAP-0000278-001
# [17] = read-out: perc_inhibition_mean, batch_name=ASAP-0000329-001
# [18] = read-out: perc_inhibition_mean, batch_name=ASAP-0000430-001
smiles,measurement,setting,value
O=C(CCN(Cc1cccc(Cl)c1)C(=O)c1ccccc1F)N1CCNCC1 [ASAP-0000311],perc_inhibition_mean,"[1]; concentration 49.75 uM, n=2",-0.625%
same,perc_inhibition_mean,"[1]; concentration 99.5 uM, n=2",0.395%
same,inhibition at 49.75 µM,[2]; [3],-0.625%
same,inhibition at 99.5 µM,[2]; [3],0.395%
C[C@@H]1[C@H](O)CCCN1C(=O)c1ccc(NC(=O)Nc2ccccc2)cc1 [ASAP-0000302],perc_inhibition_mean,"[1]; concentration 49.75 uM, n=2",-2.963%
same,perc_inhibition_mean,"[1]; concentration 99.5 uM, n=2",-2.724%
same,inhibition at 49.75 µM,[2]; [4],-2.96%
same,inhibition at 99.5 µM,[2]; [4],-2.72%
COc1cccc(Cl)c1CNc1ncnc2[nH]ncc12 [ASAP-0000002],perc_inhibition_mean,[1]; concentration 50.0 uM,-1.826%
same,inhibition at 50 µM,"[2]; read-out: perc_inhibition_mean, batch_name=ASAP-0000002-001",-1.83%
O=C(c1cc(O)ncn1)N1CCC(c2ccn3ncc(C(=O)N4CCCCC4)c3c2)CC1 [ASAP-0000420],perc_inhibition_mean,[1]; concentration 49.75 uM,19.125%
same,perc_inhibition_mean,[1]; concentration 99.5 uM,30.869%
same,inhibition at 49.75 µM,[2]; [5],19.1%
same,inhibition at 99.5 µM,[2]; [5],30.9%
Cc1[nH]nc(C(=O)N2CCC(c3ccn4ncc(C(=O)N5CCCCC5)c4c3)CC2)c1C [ASAP-0000395],perc_inhibition_mean,[1]; concentration 49.75 uM,18.038%
same,perc_inhibition_mean,[1]; concentration 99.5 uM,33.801%
same,inhibition at 49.75 µM,[2]; [6],18%
same,inhibition at 99.5 µM,[2]; [6],33.8%
O=C(Nc1ccccc1)Nc1ccc(C(=O)N2CCOCC23CCC3)cc1 [ASAP-0000288],perc_inhibition_mean,"[1]; concentration 49.75 uM, n=2",-5.176%
same,perc_inhibition_mean,"[1]; concentration 99.5 uM, n=2",-3.184%
same,inhibition at 49.75 µM,[2]; [7],-5.18%
same,inhibition at 99.5 µM,[2]; [7],-3.18%
c1coc(CNc2ncnc3[nH]cnc23)c1 [ASAP-0000198],perc_inhibition_mean,[1]; concentration 50.0 uM,2.634%
same,inhibition at 50 µM,"[2]; read-out: perc_inhibition_mean, batch_name=ASAP-0000198-001",2.63%
Cn1cc([C@@H](Nc2ncnc3[nH]ccc23)c2ccccc2)cn1 [ASAP-0000380],perc_inhibition_mean,[1]; concentration 49.75 uM,19.983%
same,perc_inhibition_mean,[1]; concentration 99.5 uM,39.262%
same,inhibition at 49.75 µM,[2]; [8],20%
same,inhibition at 99.5 µM,[2]; [8],39.3%
Cn1ncc2c(NCc3ncccc3O)ncnc21 [ASAP-0000096],perc_inhibition_mean,[1]; concentration 50.0 uM,3.893%
same,inhibition at 50 µM,"[2]; read-out: perc_inhibition_mean, batch_name=ASAP-0000096-001",3.89%
c1cnc([C@@H]2CCN(c3ncnc4[nH]ccc34)C2)cn1 [ASAP-0000054],perc_inhibition_mean,[1]; concentration 50.0 uM,-1.697%
same,inhibition at 50 µM,"[2]; read-out: perc_inhibition_mean, batch_name=ASAP-0000054-001",-1.7%
Cc1[nH]c2ncnc(NC(=O)CCc3ccccc3)c2c1C [ASAP-0000081],perc_inhibition_mean,[1]; concentration 50.0 uM,5.021%
same,inhibition at 50 µM,"[2]; read-out: perc_inhibition_mean, batch_name=ASAP-0000081-001",5.02%
CC(C)c1c[nH]nc1NC(=O)c1ccc(NC(=O)Nc2ccccc2)cc1 [ASAP-0000315],perc_inhibition_mean,"[1]; concentration 49.75 uM, n=2",6.988%
same,perc_inhibition_mean,"[1]; concentration 99.5 uM, n=2",8.502%
same,inhibition at 49.75 µM,[2]; [9],6.99%
same,inhibition at 99.5 µM,[2]; [9],8.5%
c1nc(N[C@@H]2CCCc3c2cnn3C2CCCC2)c2cc[nH]c2n1 [ASAP-0000472],perc_inhibition_mean,[1]; concentration 49.75 uM,0.884%
same,perc_inhibition_mean,[1]; concentration 99.5 uM,14.273%
same,inhibition at 49.75 µM,[2]; [10],0.884%
same,inhibition at 99.5 µM,[2]; [10],14.3%
Cc1ncc(NCc2cc3n(n2)CCOC3)cc1C(N)=O [ASAP-0000104],perc_inhibition_mean,[1]; concentration 50.0 uM,0.46%
same,inhibition at 50 µM,"[2]; read-out: perc_inhibition_mean, batch_name=ASAP-0000104-001",0.46%
O=C(C[C@@H](NC(=O)c1ncnc2[nH]ccc12)C1CC1)NCc1ccc(C(=O)O)cc1 [ASAP-0000459],perc_inhibition_mean,[1]; concentration 49.75 uM,-9.862%
same,perc_inhibition_mean,[1]; concentration 99.5 uM,0.768%
same,inhibition at 49.75 µM,[2]; [11],-9.86%
same,inhibition at 99.5 µM,[2]; [11],0.768%
CC(C)NC(=O)[C@@H]1CCCN(c2ncnc3[nH]ccc23)C1 [ASAP-0000008],perc_inhibition_mean,[1]; concentration 50.0 uM,1.78%
same,inhibition at 50 µM,"[2]; read-out: perc_inhibition_mean, batch_name=ASAP-0000008-001",1.78%
O=S(=O)(NC[C@H]1CCOC1)c1cn2c(n1)CCCC2 [ASAP-0000100],perc_inhibition_mean,[1]; concentration 50.0 uM,-3.203%
same,inhibition at 50 µM,"[2]; read-out: perc_inhibition_mean, batch_name=ASAP-0000100-001",-3.2%
O=C1NC[C@@H](C(=O)N(CCC(=O)N2CCNCC2)Cc2cccc(Cl)c2)O1 [ASAP-0000343],perc_inhibition_mean,"[1]; concentration 49.75 uM, n=2",0.125%
same,perc_inhibition_mean,"[1]; concentration 99.5 uM, n=2",5.241%
same,inhibition at 49.75 µM,[2]; [12],0.125%
same,inhibition at 99.5 µM,[2]; [12],5.24%
Cc1ccc(O)c(CNc2ncnc3[nH]cnc23)n1 [ASAP-0000254],perc_inhibition_mean,[1]; concentration 50.0 uM,0.262%
same,perc_inhibition_mean,[1]; concentration 100.0 uM,6.284%
same,inhibition at 50 µM,[2]; [13],0.262%
same,inhibition at 100 µM,[2]; [13],6.28%
FC(F)(F)c1ccccc1[C@@H]1CN(c2ncnc3[nH]ccc23)CCO1 [ASAP-0000030],perc_inhibition_mean,[1]; concentration 50.0 uM,-5.311%
same,inhibition at 50 µM,"[2]; read-out: perc_inhibition_mean, batch_name=ASAP-0000030-001",-5.31%
O=C(CCN(Cc1cccc(Cl)c1)C(=O)[C@H]1CCOC1)N1CCNCC1 [ASAP-0000394],perc_inhibition_mean,[1]; concentration 49.75 uM,4.078%
same,perc_inhibition_mean,[1]; concentration 99.5 uM,-3.965%
same,inhibition at 49.75 µM,[2]; [14],4.08%
same,inhibition at 99.5 µM,[2]; [14],-3.96%
Cc1cccc2oc(CCNc3ncnc4[nH]ccc34)nc12 [ASAP-0000038],perc_inhibition_mean,[1]; concentration 50.0 uM,-3.259%
same,inhibition at 50 µM,"[2]; read-out: perc_inhibition_mean, batch_name=ASAP-0000038-001",-3.26%
CNC(=O)c1ccnc(NC(=O)c2ccc(N3CCOCC3)cc2)c1 [ASAP-0000115],perc_inhibition_mean,[1]; concentration 50.0 uM,-12.336%
same,inhibition at 50 µM,"[2]; read-out: perc_inhibition_mean, batch_name=ASAP-0000115-001",-12.3%
O=C(Nc1cnn(C2CCNCC2)c1)c1ncnc2[nH]ccc12 [ASAP-0000138],perc_inhibition_mean,[1]; concentration 50.0 uM,-1.896%
same,inhibition at 50 µM,"[2]; read-out: perc_inhibition_mean, batch_name=ASAP-0000138-001",-1.9%
O=C(c1cncc(O)n1)N1CCC(c2ccn3ncc(C(=O)N4CCCCC4)c3c2)CC1 [ASAP-0000382],perc_inhibition_mean,[1]; concentration 49.75 uM,26.617%
same,perc_inhibition_mean,[1]; concentration 99.5 uM,41.906%
same,inhibition at 49.75 µM,[2]; [15],26.6%
same,inhibition at 99.5 µM,[2]; [15],41.9%
Cc1ncc(NCc2csc(-c3ccccn3)n2)cn1 [ASAP-0000278],perc_inhibition_mean,"[1]; concentration 49.75 uM, n=2",-5.23%
same,perc_inhibition_mean,"[1]; concentration 99.5 uM, n=2",-4.487%
same,inhibition at 49.75 µM,[2]; [16],-5.23%
same,inhibition at 99.5 µM,[2]; [16],-4.49%
CCn1cc(CNc2cc3c(O)ncnc3cn2)nn1 [ASAP-0000189],perc_inhibition_mean,[1]; concentration 50.0 uM,1.671%
same,inhibition at 50 µM,"[2]; read-out: perc_inhibition_mean, batch_name=ASAP-0000189-001",1.67%
c1ccc(CN2CCO[C@@H](CNc3ncnc4nc[nH]c34)C2)cc1 [ASAP-0000007],perc_inhibition_mean,[1]; concentration 50.0 uM,-2.441%
same,inhibition at 50 µM,"[2]; read-out: perc_inhibition_mean, batch_name=ASAP-0000007-001",-2.44%
O=C(c1cc(O)ccn1)N1CCC(c2ccn3ncc(C(=O)N4CCCCC4)c3c2)CC1 [ASAP-0000329],perc_inhibition_mean,"[1]; concentration 49.75 uM, n=2",17.623%
same,perc_inhibition_mean,"[1]; concentration 99.5 uM, n=2",32.165%
same,inhibition at 49.75 µM,[2]; [17],17.6%
same,inhibition at 99.5 µM,[2]; [17],32.2%
O=C(c1nnn[nH]1)N1CCC(c2ccn3ncc(C(=O)N4CCCCC4)c3c2)CC1 [ASAP-0000430],perc_inhibition_mean,[1]; concentration 49.75 uM,55.152%
same,perc_inhibition_mean,[1]; concentration 99.5 uM,69.012%
same,inhibition at 49.75 µM,[2]; [18],55.2%
same,inhibition at 99.5 µM,[2]; [18],69%
Cc1cc(NCc2csc(C)n2)ncn1 [ASAP-0000106],perc_inhibition_mean,[1]; concentration 50.0 uM,-4.644%
same,inhibition at 50 µM,"[2]; read-out: perc_inhibition_mean, batch_name=ASAP-0000106-001",-4.64%

# Reference: doi:10.1101/2024.08.19.608619, “Discovery of potent SARS-CoV-2 nsp3 macrodomain inhibitors uncovers lack of translation to cellular antiviral response” (bioRxiv, 2024)
